# Data from patent publication US4788206A, “Pentadieneamides” (Hoffmann-La Roche Inc., priority 1987, dated 1988).
# Read-outs that look alike come from different tables or passages of the source.
# Assays:
# [1] = molecular target: T1, PAF Binding, dog platelets (Canis lupus familiaris, UniProt A0A8I3NSH0); experiment: PAF Binding Assay (inhibition of 3H-PAF binding to washed dog platelets)
# T1 construct: Washed platelets were prepared by resuspending the platelet pellet once with PBS containing 1 mM EDTA; from tissue; host or cells: washed platelets from dog blood
# T1 sequence (A0A8I3NSH0 1-343): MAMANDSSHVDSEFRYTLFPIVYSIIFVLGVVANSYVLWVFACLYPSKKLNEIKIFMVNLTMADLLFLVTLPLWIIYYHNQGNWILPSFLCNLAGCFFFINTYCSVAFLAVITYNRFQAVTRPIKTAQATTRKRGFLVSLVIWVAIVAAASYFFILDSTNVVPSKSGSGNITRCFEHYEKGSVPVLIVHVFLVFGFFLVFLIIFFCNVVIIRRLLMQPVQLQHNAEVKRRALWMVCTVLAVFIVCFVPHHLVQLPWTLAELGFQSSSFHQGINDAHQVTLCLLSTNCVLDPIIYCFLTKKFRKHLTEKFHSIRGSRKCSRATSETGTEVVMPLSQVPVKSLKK
# Protocol: The binding assay was done in 400 μl polyethylene microcentrifuge tubes (Beckman) containing 50 μl of an oil mixture of 2 parts Siliconol AR200 (Serva): 1 part Silicone Fluid (Arthur H. Thomas). Buffer, standards, or analogs (150 μl total volume) were added to the tubes. Radiolabelled ^3 H-PAF (50 μl) was then added to the tubes. The reaction was started by the addition of 50 μl of dog platelets (2×10^7 platelets). The tubes were capped, inverted several times to mix, and incubated for 10 minutes at room temperature. The platelets were separated from the incubation mixture by centrifuging 1 minute in a Beckman Microfuge B centrifuge. The tip of the microfuge tube was cut off, and the platelets were washed out of the tip with 200 μl of 50% methanol (Burdick and Jackson). Aquasol (NEN, 10 ml) was added and the radioactivity in the samples was determined using an LS 8100 Beckman liquid scintillation counter linked to a Techtran tape recorder. Data was processed through an in-house computer system. Alternatively, radioactivity was determined using a Searle Mark III liquid scintillation counter linked to a Iso-Data microprocessor.
# (b) Preparation of Platelets
# Blood was collected from anesthesized or unanesthesized dogs into 50 ml plastic centrifuge tubes containing 3.8% sodium citrate as the anticoagulant (1 volume of citrate/9 volumes of blood). The red cells were removed by centrifugation for 15 minutes at 600 rpm (100-125 g) at room temperature. An aliquot of the supernatant platelet rich plasma (PRP) was saved for cell counting and the remainder was acidified to PH 6.5 with 0.15M citric acid. The platelet pellet was obtained after a 10 minute centrifugation at 2000 rpm (1000 g) at room temperature. Washed platelets were prepared by resuspending the platelet pellet once with PBS containing 1 mM EDTA, centrifuging as noted, and then resuspending the platelets in 0.1% BSA-PBS. An aliquot of the washed platelets was counted. Platelets used for binding assays were diluted to 2×10^7 platelets/assay tube (4×10^8 platelets/ml). Platelet counting was done using a Royco Cell-Crit 921.
# [2] = tested on: PAF-Induced Bronchoconstriction; experiment: PAF Induced Bronchoconstriction Assay; format: in vivo, guinea pig; conditions: for Percent Inhib. of PAF-Induced Bronchoconstriction, mg/Kg i.v.: i.v. (dose not given), 1 minute pretreatment, PAF 1.0 μg/kg i.v.; for inhibition in vivo at 50 mg/kg: Cavia porcellus, po, 2-hour pretreatment, read-out: Percent Inhib. of PAF-Induced Bronchoconstriction, 50 mg/Kg p.o.
# Protocol: PAF Induced Bronchoconstriction Assay
# Male animals (Hartlet Strain 400-500 g) were anesthetized with urethane (2 g/kg. i.p.). Each animals' trachea was cannulated and the guinea pigs were repirated using a Harvard small animal rodent respirator (3.0 cc stroke volume, 40 breaths per min.). Tracheal pressure was recorded from a cannula inserted in the trachea and connected to a Statham Pressure Transducer.
# The jugular vein was cannulated for administering compounds. Spontaneous breathing was arrested with succinylcholine (1.2 mg/kg. i.v.) administered 2 minutes prior to intravenous injection of platelet activating factor (PAF).
# For, the intravenous testing, the guinea pig is given a 5-minute pretreatment with propranolol at a dose of 0.1 mg/kg intravenously. The test compound is administered with a 1 minute pretreatment prior to intravenous challenge with PAF. The animal is than challenged with a 1.0 μg/kg intravenous dose of PAF and the change is tracheal pressure is measured.
# For the oral testing, the procedure includes a 2-hour pretreatment period with the test compound administered through an oral gavage tube. Propranolol or succinylcholine and PAF are administered intravenously, and the change in tracheal pressure measured.
# The change is tracheal pressure is determined by subtracting the steady state baseline achieved after administration of succinylcholine from the peak bronchoconstriction seen after challenge with PAF. The mean is calculated for each test compound and compared to the mean of the control animals to give the percent inhibition of bronchoconstriction. The standard error is calcuated as the standard error of the mean.
# [3] = dog platelets, 3H-PAF, 10 minutes at room temperature, read-out: Inhib of PAF Binding IC50
Structure (SMILES),"IC50 [1, 3]","Percent Inhib. of PAF-Induced Bronchoconstriction, mg/Kg i.v. [2]",inhibition in vivo at 50 mg/kg ([2]; 50 mg/Kg p.o.),"Percent Inhib. of PAF-Induced Bronchoconstriction, 50 mg/Kg p.o. (6 hr) ([2]; 50 mg/Kg p.o.)",IC50 [1],"Percent Inhib. of PAF-Induced Bronchoconstriction, 50 mg/Kg p.o. (8 hr) ([2]; 50 mg/Kg p.o., (8 hr))"
"COc1ccc(C(=C/C=C/C(=O)NC(CCCc2cccnc2)CCCc2cccnc2)c2ccc(OC)cc2)cc1 [(E)-5,5-bis-(4-methoxyphenyl)-N-[1-[3-(3-pyridinyl)propyl]-4-(3-pyridinyl)-butyl]-2,4-pentadienamide]",0.5 µM,50 ± 15%,,,,
"COc1ccc(C(=C/C=C/C(=O)NCCCc2ccncc2)c2ccc(OC)cc2)cc1 [(E)-5,5-bis(4-methoxyphenyl)-N-[3-(4-pyridinyl)propyl]-2,4-pentadienamide]",0.1 µM,8 ± 12%,,,,
"CCCCCC(=C/C=C/C(=O)N[C@H](C)CCCc1cccnc1)CCCCC [[R-(E)]-N-[1-methyl-4-(3-pyridinyl)butyl]-5-pentyl-2,4-decadienamide]",0.1 µM,78 ± 7%,4 ± 4%,,,
"CCCCC(CCCc1cccnc1)NC(=O)/C=C/C=C(c1ccc(OC)cc1)c1ccc(OC)cc1 (racemic) [[R,S-(E)]-N-[1-butyl-4-(3-pyridinyl)butyl]-5,5-bis(4-methoxyphenyl)-2,4-pentadienamide]",> 1 µM,42 ± 7%,,,,
"COc1ccc(/C(=C\C=C\C(=O)NCCCCc2cccnc2)c2ccccc2OC)cc1 [(E,E)-5-(2-methoxyphenyl)-5-(4-methoxyphenyl)-N-[4-(3-pyridinyl)butyl]-2,4-pentadienamide]",0.045 µM,80 ± 5%,21 ± 7%,,,
"CCCCC/C(=C\C=C\C(=O)N[C@@H](C)CCCc1cccnc1)c1ccc(OC)cc1 [[S-(E,E)]-5-(4-methoxyphenyl)-N-[1-methyl-4-(3-pyridinyl)butyl]-2,4-decadienamide]",0.12 µM,46 ± 16%,25 ± 13%,,,
"O=C(/C=C/C=C(c1cccc([N+](=O)[O-])c1)c1cccc([N+](=O)[O-])c1)NCCCCc1cccnc1 [(E)-5,5-bis(3-nitrophenyl)-N-[4-(3-pyridinyl)butyl)-2,4-pentadienamide]",,18 ± 2%,,,0.115 µM,
"CCCCC/C(=C\C=C\C(=O)N[C@H](C)CCCc1cccnc1)c1ccc(F)cc1 [[R-(E,E)]-5-(4-fluorophenyl)-N-[1-methyl-4-(3-pyridinyl)butyl]-2,4-decadienamide]",0.04 µM,95 ± 1%,,,,
"COc1ccc(C(=C/C=C/C(=O)NCCCCCc2ccccn2)c2ccc(OC)cc2)cc1 [(E)-5,5-bis(4-methoxyphenyl)-N-[5-(2-pyridinyl)pentyl]-2,4-pentadienamide]",1 µM,27 ± 6%,,,,
"COc1ccc(/C(=C/C=C/C(=O)NCCCCc2cccnc2)c2cccnc2)cc1 [(2E,4Z)-5-(4-methoxyphenyl)-5-(3-pyridinyl)-N-[4-(3-pyridinyl)butyl]-2,4-pentadienamide]",0.05 µM,78 ± 10%,39 ± 8%,,,
"COc1ccc(C(=C/C=C/C(=O)NCCCCc2cccnc2)c2ccc(OC)c(OC)c2)cc1OC [(E)-5,5-bis(3,4-Dimethoxyphenyl)-N-[4-(3-pyridinyl)butyl]-2,4-pentadienamide]",0.055 µM,78 ± 6%,71 ± 2%,,,
"CC[C@H](CCCc1cccnc1)NC(=O)/C=C/C=C(c1ccc(OC)cc1)c1ccc(OC)cc1 [[R-(E)]-N-[1-ethyl-4-(3-pyridinyl)butyl]-5,5-bis(4-methoxyphenyl)-2,4-pentadienamide]",0.12 µM,99 ± 0.4%,99 ± 1%,,,85 ± 12%

# Further compounds by falling IC50 [1, 3], results first:
"IC50 [1, 3]",Structure (SMILES),"Percent Inhib. of PAF-Induced Bronchoconstriction, mg/Kg i.v. [2]",inhibition in vivo at 50 mg/kg ([2]; 50 mg/Kg p.o.),"Percent Inhib. of PAF-Induced Bronchoconstriction, 50 mg/Kg p.o. (6 hr) ([2]; 50 mg/Kg p.o.)",IC50 [1],"Percent Inhib. of PAF-Induced Bronchoconstriction, 50 mg/Kg p.o. (8 hr) ([2]; 50 mg/Kg p.o., (8 hr))"
0.04 µM,"COc1ccc(/C(=C\C=C\C(=O)N[C@H](C)CCCc2cccnc2)C(C)C)cc1 [[R-(2E,4Z)]-5-(4-methoxyphenyl)-6-methyl-N-[1-methyl-4-(3-pyridinyl)butyl]-2,4-heptadienamide]",89 ± 3%,71 ± 14%,,,
0.03 µM,"COc1ccc(/C(=C/C=C/C(=O)N[C@H](C)CCCc2cccnc2)C(C)C)cc1 [[R-(E,E)]-5-(4-methoxyphenyl)-6-methyl-N-[1-methyl-4-(3-pyridinyl)butyl]-2,4-heptadienamide]",38 ± 11%,,,,
0.025 µM,"COc1ccc(/C(=C\C=C\C(=O)NCCCCc2cccnc2)c2cccnc2)cc1 [(E,E)-5-(4-methoxyphenyl)-5-(3-pyridinyl)-N-[4-(3-pyridinyl)butyl]-2,4-pentadienamide]",97 ± 0.6%,85 ± 8%,,,
0.02 µM,"COc1ccc(/C(=C/C=C/C(=O)N[C@H](C)CCCc2cccnc2)C2CCCCC2)cc1 [[R-(E,E)]-5-cyclohexyl-5-(4-methoxyphenyl)-N-[1-methyl-4-(3-pyridinyl)butyl]-2,4-pentadienamide]",73 ± 17%,97 ± 1%,12 ± 10%,,
0.016 µM,"COc1ccc(/C(=C/C=C/C(=O)N[C@H](C)CCCc2cccnc2)c2cccs2)cc1 [[R-(2E,4Z)]-5-(4-methoxyphenyl)-N-[1-methyl-4-(3-pyridinyl)butyl]-5-(2-thienyl)-2,4-pentadienamide]",97 ± 1%,96 ± 2%,27 ± 6%,,
0.015 µM,"CCCCC/C(=C\C=C\C(=O)NCCCCc1cccnc1)c1ccc(OC)cc1 [(E,E)-5-(4-methoxyphenyl)-N-[4-(3-pyridinyl)butyl]-2,4-decadienamide]",99 ± 1%,26 ± 2%,,,
0.014 µM,"CCCC/C(=C\C=C\C(=O)N[C@H](C)CCCc1cccnc1)c1ccc(OC)cc1 [[R-(E,E)]-5-(4-methoxyphenyl)-N-[1-methyl-4-(3-pyridinyl)butyl]-2,4-nonadienamide]",99 ± 1%,98 ± 1%,,,
0.01 µM,"COc1ccc(C(=C/C=C/C(=O)Nc2ccc(-c3cccnc3)cc2)c2ccc(OC)cc2)cc1 [(E)-5,5-bis-(4-methoxyphenyl)-N-[4-(3-pyridinyl)phenyl]-2,4-pentadienamide]",97 ± 1%,84 ± 8%,,,
0.006 µM,"CCCCC/C(=C\C=C\C(=O)N[C@H](C)CCCc1cccnc1)c1ccc(OC)c(OC)c1 [[R-(E,E)]-5-(3,4-dimethoxyphenyl)-N-[1-methyl-4-(3-pyridinyl)butyl]-2,4-decadienamide]",99 ± 0.4%,,,,
0.005 µM,"CCCCC/C(=C\C=C\C(=O)NC(C)CCCc1cccnc1C)c1ccc(OC)cc1 (racemic) [[R,S-(E,E)]-5-(4-methoxyphenyl)-N-[1-methyl-4-(2-methyl-3-pyridinyl)butyl]-2,4-decadienamide]",77 ± 5%,,,,
